# Test results reported in article PMC10202811 (Nature Medicine, 2023).
# Like-named read-outs stand apart in the source and are kept apart here.
# Assay: Plasma pharmacokinetics of lorlatinib at steady state (LC-MS/MS, non-compartmental analysis)
# Assay type: in vivo, human
# Conditions: human, plasma, oral; for Cmax: read-out: Cmax; for Tmax: read-out: Tmax
# From the text: Lorlatinib was isolated from human plasma by a liquid-iquid extraction procedure. […] A linear-log trapezoidal method was used [NT] A best-fit method was used to estimate terminal elimination and to extrapolate any plasma concentration versus time profiles to compute [NT].
# [1] = 60 mg/m2, Cohort A1, 60 mg/m2 per dose, C1D15, individual patient
# [2] = 60 mg/m2, Cycle 1 Day 1, Cohort A1, 60 mg/m2 per dose, individual patients
# [3] = 60 mg/m2, Cycle 1 Day 15, Cohort A1, 60 mg/m2 per dose, individual patients
# [4] = 75 mg/m2, Cohort A1, 75 mg/m2 per dose, C1D15, Geometric Mean, N 3
# [5] = 75 mg/m2, Cohort A1, 75 mg/m2 per dose, C1D15, Median, N 3
# [6] = 75 mg/m2, Cycle 1 Day 1, Cohort A1, 75 mg/m2 per dose, individual patients
# [7] = 95 mg/m2, Cohort A1, 95 mg/m2 per dose, C1D15, Geometric Mean, N 9
# [8] = 95 mg/m2, Cohort A1, 95 mg/m2 per dose, C1D15, Median, N 9
# [9] = 95 mg/m2, Cohort B2, 95 mg/m2 per dose, C1D15, Geometric Mean, N 2
# [10] = 95 mg/m2, Cohort B2, 95 mg/m2 per dose, C1D15, Median, N 2
# [11] = 95 mg/m2, Cohort B2, 95 mg/m2 per dose, C1D15, individual patient
# [12] = 95 mg/m2, Cycle 1 Day 1, Cohort A1, 95 mg/m2 per dose
# [13] = 95 mg/m2, Cycle 1 Day 1, Cohort B2, 95 mg/m2 per dose
# [14] = 95 mg/m2, Cycle 1 Day 1, Cohort A1, 95 mg/m2 per dose, individual patients
# [15] = 95 mg/m2, Cycle 1 Day 15, Cohort B2, 95 mg/m2 per dose
# [16] = 95 mg/m2, steady state, Cohort B2 (with topotecan/cyclophosphamide), 95 mg/m^2 QD, individual values
# [17] = 100 mg, Cohort A2, 100 mg per dose, C1D15, Geometric Mean, N 5
# [18] = 100 mg, Cohort A2, 100 mg per dose, C1D15, Median, N 5
# [19] = 100 mg, Cycle 1 Day 1, Cohort A2, 100 mg per dose, individual patients
# [20] = 150 mg per dose, Cycle 1 Day 1, Cohort A2, 150 mg per dose
# [21] = 150 mg per dose, Cycle 1 Day 15, Cohort A2, 150 mg per dose
# [22] = 150 mg, Cohort A2, 150 mg per dose, C1D15, Geometric Mean, N 10
# [23] = 150 mg, Cohort A2, 150 mg per dose, C1D15, Median, N 10
# [24] = 150 mg, Cycle 1 Day 1, Cohort A2, 150 mg per dose, individual patients
# [25] = 150 mg, Cycle 1 Day 15, Cohort A2, 150 mg per dose, individual patients
smiles,measurement,setting,value
"C[C@H]1Oc2cc(cnc2N)-c2c(nn(C)c2C#N)CN(C)C(=O)c2ccc(F)cc21 [Lorlatinib, (10R)-7-amino-12-fluoro-2,10,16-trimethyl-15-oxo-10,15,16,17-tetrahydro-2H-8,4-(metheno)pyrazolo[4,3-h][2,5,11]-benzoxadiazacyclotetradecine-3-carbonitrile]",Cmax,[1],623 ng/mL
same,Tmax,[1],2 h
same,AUC(0-t),[2],3960 ng·h/mL
same,MRT last,[2],6.96 h
same,Cmax,[2],761 ng/mL
same,Tmax,[2],1 h
same,AUC(0-t),[3],4140 ng·h/mL
same,AUC(0-inf),"60 mg/m2, Cycle 1 Day 15, Cohort A1, 60 mg/m2 per dose, individual patients, read-out: AUCINF_obs",5050 ng·h/mL
same,AUC(0-inf),"60 mg/m2, Cycle 1 Day 15, Cohort A1, 60 mg/m2 per dose, individual patients, read-out: AUCINF_pred",5040 ng·h/mL
same,AUC,"60 mg/m2, Cycle 1 Day 15, Cohort A1, 60 mg/m2 per dose, individual patients, read-out: AUC_TAU",4140 ng·h/mL
same,AUC,"60 mg/m2, Cycle 1 Day 15, Cohort A1, 60 mg/m2 per dose, individual patients, read-out: AUCall",4140 ng·h/mL
same,Cmax,[3],623 ng/mL
same,MRT inf,"60 mg/m2, Cycle 1 Day 15, Cohort A1, 60 mg/m2 per dose, individual patients, read-out: MRTINF_obs",13 h
same,MRT inf,"60 mg/m2, Cycle 1 Day 15, Cohort A1, 60 mg/m2 per dose, individual patients, read-out: MRTINF_pred",12.9 h
same,Tmax,[3],2 h
same,AUC,"60 mg/m2, steady state, Cohort A1, 60 mg/m^2 QD, (CV), read-out: AUCtau",3930 ng·h/mL
same,Cmax,"60 mg/m2, steady state, Cohort A1, 60 mg/m^2 QD, (CV)",492 ng/mL
same,Tmax,"60 mg/m2, steady state, Cohort A1, 60 mg/m^2 QD",2 h
same,AUC,"75 mg/m2, Cohort A1, 75 mg/m2 per dose, C1D15, Geometric Mean, N 3, read-out: AUC_TAU",4150 ng·h/mL
same,Cmax,[4],645 ng/mL
same,Tmax,[4],2.29 h
same,AUC,"75 mg/m2, Cohort A1, 75 mg/m2 per dose, C1D15, Median, N 3, read-out: AUC_TAU",4020 ng·h/mL
same,Cmax,[5],659 ng/mL
same,Tmax,[5],2 h
same,Cmax,"75 mg/m2, Cohort A1, 75 mg/m2 per dose, C1D15, individual patient",659 ng/mL
same,AUC(0-t),[6],6740 ng·h/mL
same,MRT last,[6],7.77 h
same,AUC,"75 mg/m2, Cycle 1 Day 1, Cohort A1, 75 mg/m2 per dose, individual patients, read-out: AUCall",6740 ng·h/mL
same,Cmax,[6],961 ng/mL
same,Tmax,[6],1 h
same,AUC(0-inf),"75 mg/m2, Cycle 1 Day 15, Cohort A1, 75 mg/m2 per dose, individual patients, read-out: AUCINF_obs",4500 ng·h/mL
same,AUC(0-inf),"75 mg/m2, Cycle 1 Day 15, Cohort A1, 75 mg/m2 per dose, individual patients, read-out: AUCINF_pred",4490 ng·h/mL
same,Cmax,"75 mg/m2, Cycle 1 Day 15, Cohort A1, 75 mg/m2 per dose, individual patients",659 ng/mL
same,MRT inf,"75 mg/m2, Cycle 1 Day 15, Cohort A1, 75 mg/m2 per dose, individual patients, read-out: MRTINF_obs",10.3 h
same,MRT inf,"75 mg/m2, Cycle 1 Day 15, Cohort A1, 75 mg/m2 per dose, individual patients, read-out: MRTINF_pred",10.3 h
same,AUC,"75 mg/m2, steady state, Cohort A1, 75 mg/m^2 QD, (CV), read-out: AUCtau",4160 ng·h/mL
same,Cmax,"75 mg/m2, steady state, Cohort A1, 75 mg/m^2 QD, (CV)",645 ng/mL
same,Tmax,"75 mg/m2, steady state, Cohort A1, 75 mg/m^2 QD",2 h
same,AUC,"95 mg/m2, Cohort A1, 95 mg/m2 per dose, C1D15, Geometric Mean, N 9, read-out: AUC_TAU",7470 ng·h/mL
same,Cmax,[7],1020 ng/mL
same,Tmax,[7],1.47 h
same,AUC,"95 mg/m2, Cohort A1, 95 mg/m2 per dose, C1D15, Median, N 9, read-out: AUC_TAU",6910 ng·h/mL
same,Cmax,[8],1100 ng/mL
same,Tmax,[8],1 h
same,AUC,"95 mg/m2, Cohort B2, 95 mg/m2 per dose, C1D15, Geometric Mean, N 2, read-out: AUC_TAU",6690 ng·h/mL
same,Cmax,[9],817 ng/mL
same,Tmax,[9],2.83 h
same,AUC,"95 mg/m2, Cohort B2, 95 mg/m2 per dose, C1D15, Median, N 2, read-out: AUC_TAU",6810 ng·h/mL
same,Cmax,[10],824 ng/mL
same,Tmax,[10],3 h
same,AUC,"95 mg/m2, Cohort B2, 95 mg/m2 per dose, C1D15, individual patient, read-out: AUC_TAU",8100 ng·h/mL
same,Cmax,[11],926 ng/mL
same,Tmax,[11],4 h
same,MRT last,[12],7.38 h
same,Tmax,[12],1 h
same,Cmax,[13],914 ng/mL
same,Tmax,[13],2 h
same,MRT last,[14],9.06 h
same,Tmax,[14],2 h
same,Tmax,"95 mg/m2, Cycle 1 Day 15, Cohort A1, 95 mg/m2 per dose",1 h
same,AUC(0-t),[15],8100 ng·h/mL
same,AUC(0-inf),"95 mg/m2, Cycle 1 Day 15, Cohort B2, 95 mg/m2 per dose, read-out: AUCINF_obs",5730 ng·h/mL
same,AUC(0-inf),"95 mg/m2, Cycle 1 Day 15, Cohort B2, 95 mg/m2 per dose, read-out: AUCINF_pred",5730 ng·h/mL
same,AUC,"95 mg/m2, Cycle 1 Day 15, Cohort B2, 95 mg/m2 per dose, read-out: AUC_TAU",8100 ng·h/mL
same,AUC,"95 mg/m2, Cycle 1 Day 15, Cohort B2, 95 mg/m2 per dose, read-out: AUCall",8100 ng·h/mL
same,Cmax,[15],926 ng/mL
same,MRT inf,"95 mg/m2, Cycle 1 Day 15, Cohort B2, 95 mg/m2 per dose, read-out: MRTINF_obs",7.79 h
same,MRT inf,"95 mg/m2, Cycle 1 Day 15, Cohort B2, 95 mg/m2 per dose, read-out: MRTINF_pred",7.77 h
same,Tmax,[15],4 h
same,MRT inf,"95 mg/m2, Cycle 1 Day 15, Cohort A1, 95 mg/m2 per dose, individual patients, read-out: MRTINF_obs",20.6 h
same,MRT inf,"95 mg/m2, Cycle 1 Day 15, Cohort A1, 95 mg/m2 per dose, individual patients, read-out: MRTINF_pred",20.5 h
same,AUC,"95 mg/m2, steady state, Cohort A1, 95 mg/m^2 QD, (CV), read-out: AUCtau",7470 ng·h/mL
same,Cmax,"95 mg/m2, steady state, Cohort A1, 95 mg/m^2 QD, (CV)",1020 ng/mL
same,Tmax,"95 mg/m2, steady state, Cohort A1, 95 mg/m^2 QD",1 h
same,AUC,"95 mg/m2, steady state, Cohort B2 (with topotecan/cyclophosphamide), 95 mg/m^2 QD, individual values, read-out: AUCtau",8100 ng·h/mL
same,Cmax,[16],926 ng/mL
same,Tmax,[16],4 h
same,AUC,"100 mg, Cohort A2, 100 mg per dose, C1D15, Geometric Mean, N 5, read-out: AUC_TAU",6790 ng·h/mL
same,Cmax,[17],789 ng/mL
same,Tmax,[17],1.74 h
same,AUC,"100 mg, Cohort A2, 100 mg per dose, C1D15, Median, N 5, read-out: AUC_TAU",6130 ng·h/mL
same,Cmax,[18],569 ng/mL
same,Tmax,[18],2 h
same,MRT last,[19],12.4 h
same,Tmax,[19],2 h
same,MRT inf,"100 mg, Cycle 1 Day 15, Cohort A2, 100 mg per dose, individual patients, read-out: MRTINF_obs",23.8 h
same,MRT inf,"100 mg, Cycle 1 Day 15, Cohort A2, 100 mg per dose, individual patients, read-out: MRTINF_pred",23.7 h
same,AUC,"100 mg, steady state, Cohort A2, 100 mg QD, (CV), read-out: AUCtau",6790 ng·h/mL
same,Cmax,"100 mg, steady state, Cohort A2, 100 mg QD, (CV)",789 ng/mL
same,Tmax,"100 mg, steady state, Cohort A2, 100 mg QD",2 h
same,AUC(0-t),[20],8990 ng·h/mL
same,MRT last,[20],9.33 h
same,AUC,"150 mg per dose, Cycle 1 Day 1, Cohort A2, 150 mg per dose, read-out: AUCall",8990 ng·h/mL
same,Tmax,[20],1 h
same,AUC(0-t),[21],5000 ng·h/mL
same,AUC,"150 mg per dose, Cycle 1 Day 15, Cohort A2, 150 mg per dose, read-out: AUCall",5000 ng·h/mL
same,Tmax,[21],2 h
same,AUC,"150 mg, Cohort A2, 150 mg per dose, C1D15, Geometric Mean, N 10, read-out: AUC_TAU",6680 ng·h/mL
same,Cmax,[22],741 ng/mL
same,Tmax,[22],1.41 h
same,AUC,"150 mg, Cohort A2, 150 mg per dose, C1D15, Median, N 10, read-out: AUC_TAU",6890 ng·h/mL
same,Cmax,[23],710 ng/mL
same,Tmax,[23],1 h
same,AUC,"150 mg, Cohort A2, 150 mg per dose, C1D15, individual patient, read-out: AUC_TAU",5920 ng·h/mL
same,AUC(0-t),[24],5920 ng·h/mL
same,MRT last,[24],8.35 h
same,AUC,"150 mg, Cycle 1 Day 1, Cohort A2, 150 mg per dose, individual patients, read-out: AUCall",5920 ng·h/mL
same,Cmax,[24],564 ng/mL
same,Tmax,[24],1 h
same,AUC,"150 mg, Cycle 1 Day 15, Cohort A2, 150 mg per dose, read-out: AUC_TAU",5000 ng·h/mL
same,AUC(0-t),[25],7380 ng·h/mL
same,AUC(0-inf),"150 mg, Cycle 1 Day 15, Cohort A2, 150 mg per dose, individual patients, read-out: AUCINF_pred",8770 ng·h/mL
same,AUC,"150 mg, Cycle 1 Day 15, Cohort A2, 150 mg per dose, individual patients, read-out: AUC_TAU",7380 ng·h/mL
same,AUC,"150 mg, Cycle 1 Day 15, Cohort A2, 150 mg per dose, individual patients, read-out: AUCall",7380 ng·h/mL
same,concentration at 24 h,"150 mg, Cycle 1 Day 15, Cohort A2, 150 mg per dose, individual patients, read-out: Clast_pred",128 ng/mL
same,Cmax,[25],658 ng/mL
same,MRT inf,"150 mg, Cycle 1 Day 15, Cohort A2, 150 mg per dose, individual patients, read-out: MRTINF_obs",16.8 h
same,MRT inf,"150 mg, Cycle 1 Day 15, Cohort A2, 150 mg per dose, individual patients, read-out: MRTINF_pred",16.7 h
same,AUC,"150 mg, steady state, Cohort A2, 150 mg QD, (CV), read-out: AUCtau",6680 ng·h/mL
same,Cmax,"150 mg, steady state, Cohort A2, 150 mg QD, (CV)",741 ng/mL
same,Tmax,"150 mg, steady state, Cohort A2, 150 mg QD",1 h
